# Assay results as given in PubChem BioAssay AID651841 (Broad Institute, 2012).
# “And” between values parts separate entries of the source, which are not always exact repeats. Equal values may be shown once. The source made the active and inactive calls. The rule behind the calls is not given here.
# Tested on: CAI-1 sensor histidine kinase CqsS (Vibrio cholerae)
# Experiment: Inducers of light production, absence of autoinducers, V cholerae delta luxQ strain, confirmatory (AID 651841)
# Details: V. cholerae WN1103 delta luxQ, luciferase light, 6 h
row,Structure (SMILES),AC40
1,CCn1nnnc1NCc1ccc(N2CCCC2)cc1,0.0107 µM
2,CCCn1nnnc1NCc1ccc(C(C)C)cc1,0.319 µM
3,O=C(Cc1ccc(-c2ccccc2)cc1)NC1CCC1,0.28 µM
4,CC(C)c1ccc(CNc2nnnn2C)cc1,0.577 µM
5,CCn1nnnc1CCc1ccc(N2CCCC2)cc1,0.713 µM
6,CCCn1nnnc1NCc1ccc(N2CCCC2)cc1,0.0121 µM
7,O=C(Cc1ccc(-c2ccccc2)cc1)NC1CCCC1,0.212 µM and 0.313 µM
8,CCC(CC)NC(=O)Cc1ccc(-c2ccccc2)cc1,2.2 µM
9,CCCCn1nnnc1NCc1ccc(N2CCCC2)cc1,2.64 µM
10,O=C(Cc1ccc(-c2ccccc2)cc1)NC1CCCCC1,8.98 µM
11,CCC(C)NC(=O)Cc1ccc(-c2ccccc2)cc1 (stereo not given),2.06 µM
12,CCn1nnnc1NCc1cccc(N2CCCC2)c1,0.0512 µM
13,CCn1nnnc1NCc1ccc(N2CCCCC2)cc1,0.0555 µM
14,O=C(Cc1ccc(-c2ccccc2)cc1)NC1CCOCC1,1.2 µM
15,CC(C)NC(=O)Cc1ccc(-c2ccccc2)cc1,2.5 µM
16,CCn1nnnc1NCc1ccc(C(C)C)cc1,0.00501 µM and 0.0451 µM
17,Cn1nnnc1NCc1ccc(N2CCCC2)cc1,0.351 µM

# Same assay, conditions: V. cholerae WN1103 delta luxQ, luciferase light, 6 h; at 80 µM (top of the series)
row,Structure (SMILES),activation
1,O=C(Cc1ccccc1Cl)NC1CCCC1,0.107% (inactive)
2,c1ccc(Cn2nnnc2NCc2ccc(N3CCCC3)cc2)cc1,0.279% (inactive)
3,CCn1nnc(CCc2ccc(N3CCCC3)cc2)n1,0.131% (inactive)
4,CCn1nccc1/N=C/c1ccc(N2CCCC2)cc1,0.487% (inactive)
5,c1ccc(-n2nnnc2NCc2ccc(N3CCCC3)cc2)cc1,0.501% (inactive)
6,O=C(Cc1cccc(F)c1)NC1CCCC1,0.377% (inactive)
7,O=C(Cc1ccccc1F)NC1CCCC1,0.603% (inactive)
8,Cc1ccc(Cn2nnnc2NCc2ccc(N3CCCC3)cc2)cc1,0.549% (inactive)
9,c1ccc(Cn2nnc(NCc3ccc(N4CCCC4)cc3)n2)cc1,0.159% (inactive)
10,CCn1nnnc1NCc1cccc(OC)c1,24.5% (inactive)
11,CCn1nnc(NCc2ccc(C)cc2)n1,0.069% (inactive)
12,CCn1nccc1NCc1ccc(N2CCCC2)cc1,0.149% (inactive)
13,O=C(NCc1ccc(-c2ccccc2)cc1)C1CCCC1,3.17% (inactive)
14,CCc1ccccc1NCc1ccc(N2CCCC2)cc1,0.105% (inactive)
15,O=C(Cc1ccccc1OC(F)(F)F)NC1CCCC1,0.045% (inactive)
16,O=C(Cc1cccc(OC(F)(F)F)c1)NC1CCCC1,2.18% (inactive)
17,COc1ccc(CC(=O)NC2CCCC2)cc1,13% (inactive)
18,CS(=O)(=O)c1ccc(CC(=O)NC2CCCC2)cc1,0.008% (inactive)
19,O=C(Cc1ccccc1C(F)(F)F)NC1CCCC1,0.044% (inactive)
20,Cc1ccccc1CC(=O)NC1CCCC1,0.164% (inactive)
21,CCn1nnnc1NCc1ccccc1N1CCCC1,0.052% (inactive)
22,Fc1ccc(Cn2nnnc2NCc2ccc(N3CCCC3)cc2)cc1,0.54% (inactive)
23,CCCn1nnnc1NCc1ccccc1Cl,0.104% (inactive)
